This is an account of results in patent publication US20240092779A1, “USP1 INHIBITORS AND USES THEREOF” (Zentaur Therapeutics USA Inc., priority 2022, published 2024).

Structures are written as SMILES. pIC50: −log10 of the molar value.

Data set [1] in a line: Liver microsomal stability (HLM). The data set is classed as in vitro ADME. To be noted: human, liver microsomes, human liver microsomes 0.5 mg/mL, 1 μM compound, NADPH. As to the method:
Liver Microsomal Stability
Certain Compounds of the Disclosure were assessed for ADME metabolic stability in human liver microsomes (HLM).
Samples were prepared by adding 222.5 μL of a master solution (100 mM phosphate buffer and 0.5 mg/mL liver microsomes (HLM)) and 25 μL of a 10 mM NADPH solution to incubation plates, which were then warmed for 10 min. Each compound was separately dissolved in DMSO to prepare 10 mM stock solutions, which were then diluted to 100 μM with acetonitrile. A reaction was started by adding 2.5 μL of the […] solution of each compound to separate incubation plates such that the final concentration of for each compound in each plate was 1 μM. Aliquots of 30 μL were taken from the reaction solution at 0.5, 5, 15, 30 and 60 minutes. The reaction was stopped by the addition of 5 volumes of cold acetonitrile with IS (100 nM alprazolam, 200 nM caffeine and 100 nM tolbutamide). Aliquot of 100 μL of the supernatant was diluted by 100 μL ultra-pure water, and the mixture was used for LC/MS/MS analysis. Peak areas were determined from extracted ion chromatograms. […]. The percentage of remaining parent was calculated from peak area of test compound or PC. The slope value, k, is determined by linear regression of the natural logarithm of percent parent remaining vs. incubation time curve. All calculations are carried out using Microsoft Excel.
The in vitro half-life (in vitro t1/2) is determined from the slope value:
Conversion of the in vitro t1/2 (in min) into the in vitro intrinsic clearance (in vitro CLint, (HLM Clint (μL/min/mg proteins))) is done using the following equation: […]
A: HLM Clint <10 μL/min/mg; B: 10 μL/min/mg≤HLM Clint <50 μL/min/mg; C: HLM Clint ≥50 μL/min/mg.
(Liver microsomes are vesicles of endoplasmic reticulum, rich in cytochrome P450 enzymes.)

A further data set has as its system MDA-MB-436 cells. The experiment in a line: CTG Protocol (MDA-MB-436 GI50), antiproliferative activity. Format: cell-based, human. The note with it: Homo sapiens, 168 h; MDA-MB-436 cells (BRCA1 mutation), 7-day incubation, CellTiter-Glo. The procedure: CTG Protocol (MDA-MB-436 GI50)
Antiproliferative activity of USP1 inhibitors was determined using breast cancer cell line MDA-MB-436 that harbors BRCA1 mutation. MDA-MB-436 cells (ATCC, HTB-130) was seeded with a seeding density of 1000 cells per well and 95 μL DMEM medium (Gibco, 10566016) into 96-well cell plates (Corning, 3610), and incubated overnight at 37° C. and 5% CO2. Compounds were solubilized in DMSO (Solarbio, D8371) as 10 mM stock solution, and then series diluted (3 folds) with DMSO for 9-point dose-response testing. The resulted series dilutions were then jump-diluted 50-fold by cell culture medium to afford the 20×stock solutions (containing 2% DMSO). Treatment was initiated by adding 5 μL of 20×stock solution to the assay plate and incubated at 37° C. and 5% CO2. At the end of 7-day incubation, cell assay plates were removed from incubation and equilibrated to room temperature (20 min). Then 100 μL of CellTiter-Glo (Promega, G9243) reagent, prepared per manufacturer's protocol, was added to each well, and the resulted plates were centrifuged 1,000 rpm for 1 minute, incubated at room temperature in the dark for 20 minutes, sealed with Perkin Elmer sticky film, and the luminescence signal read by Envision (Perkin Elmer).
Data analysis • a) % Inhibition was calculated using following equation: […]
X: compound concentration; Y: % Inhibition
(§1) Certain compounds were tested in the assays.

A further data set deals with HCC1806 Ub-PCNA (USP1). The experiment in a line: USP1 Western Blot Protocol (HCC1806 Ub-PCNA). Format: cell-based. To be noted: Homo sapiens, HCC1806 cells, 4 hours.
Source text: USP1 Western Blot Protocol (HCC1806 Ub-PCNA)
USP1 is a deubiquitinase that catalyze the hydrolysis of iso-peptide bond between ubiquitin and the substrate proteins. Inhibition of USP1 activity results in accumulation of mono-ubiquitinated substrate such as Ub-PCNA. A cell assay was set up to determine the cellular potency of USP1 compounds by monitoring the accumulation of Ub-PCNA. The signal intensity was detected by a specific Ub-PCNA antibody through Western-blot analysis.
The assay was initiated by seeding HCC1806 cells (ATCC, CRL-2335) into 6-well plates (Corning, 3516), with a seeding density of 3×10^5 cells per well and 2 mL RPMI 1640 culture medium (Gibco, 11875119). The plates were incubated overnight at 37° C. and 5% CO2. Compounds, solubilized in DMSO (Solarbio, D8371) as 1 mM stock solution, were diluted in 4-fold steps for 5-cencentration point dose response plus a no-compound DMSO control. Diluted compounds (2 μL) were transferred into assay wells (with a final DMSO concentration of −0.1%) and the resulted assay plates incubated at 37° C. and 5% CO2 for 4 hours. After aspiration of culture medium, 100 μL of 4° C. RIPA lysis buffer (Boston BioProducts, BP-115D) supplemented with vendor recommended concentrations of protease (Roche, 4693116001) and phosphatase (Roche, 4906837001) inhibitor, was added to each well and incubated for 10 minutes on the ice. Cells were scrapped loose from the bottom of well with a scraper (Corning, 3008), transferred into a 600 μL EP tube, sonicated using Ultrasound (Qsonica, Q800R3, with 30% energy, 5-second pulse on/off cycles at 4° C., for total 2 minutes), centrifuged 13,000 rpm for 15 minutes at 4° C., and then the supernatant transferred to a new 600 μL EP tube. The total protein concentration was determined using BCA kit following vendor recommended protocol (Solarbio, PC0020-500). Loading samples were prepared by diluting the total protein concentration to 1.5 μg/μL with 5 X NuPAGE SDS loading buffer (Beyotime, P0015L) and RIPA lysis buffer, and boiling at 100° C. for 5 minutes.
15 μg protein from each sample was loaded onto NuPAGE® Novex 4-12% Bis-Tris Midi Gel, 26 W (Invitrogen, WG1403BOX) and electrophoresis was run at 80 V for 30 minutes and 120 V till the end using 1x NuPAGE® MOPS SDS Running Buffer (Novex, NP0001). The gel was then transferred to nitrocellulose membrane using the dry transfer system (iBlot 2 Transfer Stacks, nitrocellulose, D323001) with a program consisting of 20 V for 1 minute, 23 V for 4 minutes and 25 V for 2 minutes. After the membrane was blocked with 5% BSA (Solarbio, A8020) in 1X TBST (CST, 9997S) for 1 hour at room temperature, specific antibodies (Ubiquityl-PCNA antibody (CST, 13439) at 1:500 dilution, PCNA antibody (Santa Cruz, sc-56) at 1:1000 dilution, and GAPDH (CST, 5174) at 1:2000 dilution in 1 X TBST containing 1% BSA) were added and incubated at room temperature for 1.5 hours. After washing the Nitrocellulose membranes with 1 X TBST for 3 times, 10 minutes each time at room temperature, fluorescently labeled secondary antibodies (anti-rabbit IgG, Licor, 926-32211; anti-mouse IgG, LI-COR, 926-68070) at 1:5000 dilution in 1 X TBST containing 1% BSA were added and incubated for 1 hour at room temperature in the dark. The membranes were then rinsed with 1 X TBST and immersed in the RO water. Imaging of band intensity was acquired with Li—COR imaging system (Li—COR, Odyssey clx ES).
Percentage of USP1 inhibition (% Vehicle) was calculated by using following equation examining Ub-PCNA upregulation:
And IC50 was calculated using four-parameter logistic fitting program • Y=Bottom+(Top-Bottom)/(1+10 {circumflex over (()}(LogIC50−X)*Hill Slope)) • X=Log of dose or concentration
as §1
(In general: A western blot detects proteins with antibodies after separation by electrophoresis.)

The microsomal CLint is the rate of metabolic loss divided by the concentration. Low values mean slow turnover, high ones rapid turnover. For `COc1ncnc(C2CC2)c1-c1ncc2ccc(=O)n(Cc3ccc(-c4nc(C(F)(F)F)cn4C)cc3)c2n1` [Compound I-1, 2-(4-Cyclopropyl-6-Methoxypyrimidin-5-Yl)-8-({4-[1-Methyl-4-(Trifluoromethyl)Imidazol-2-Yl]Phenyl}Methyl)Pyrido[2,3-d]Pyrimidin-7-One], the microsomal CLint at 1 μM in data set [1] fell in the range of 10 to 50 µL/min/mg.

`COc1ncnc(C2CC2)c1-c1ncc2ccc(=O)n(Cc3ccc(-c4nc(C(F)(F)F)cn4C4COC4)cc3)c2n1` [Compound I-59]: the microsomal CLint at 1 μM in data set [1] was in the range of 10 to 50 µL/min/mg.

`COc1ncnc(C2CC2)c1-c1cc2c(ccc(=O)n2Cc2ccc(-c3nc(C(F)(F)F)cn3C)cc2)cn1` [Compound I-11, 7-(4-Cyclopropyl-6-Methoxypyrimidin-5-Yl)-1-({4-[1-Methyl-4-(Trifluoromethyl)Imidazol-2-Yl]Phenyl}Methyl)-1,6-Naphthyridin-2-One]: in data set [1], the microsomal CLint at 1 μM was 10 to 50 µL/min/mg.

For orientation: GI50 means the concentration at which growth is held to half of that of the control. As usually defined, the pIC50 is the IC50 on a negative log10 scale, so that one unit is a factor of ten. Low values mean a high IC50, high ones a low IC50. With `[2H]C([2H])([2H])n1cc(C(F)(F)F)nc1-c1ccc(Cn2c(=O)ccc3cnc(-c4c(OC)ncnc4C4CC4)nc32)cc1` [Compound I-31, 2-(4-Cyclopropyl-6-Methoxypyrimidin-5-Yl)-8-({4-[1-(2H3)Methyl-4-(Trifluoromethyl)Imidazol-2-Yl]Phenyl}Methyl)Pyrido[2,3-d]Pyrimidin-7-One], the GI50 in the data set with MDA-MB-436 cells was under 10 nM. Besides, the pIC50 in the data set on HCC1806 Ub-PCNA (USP1) is 7.00 to 8.00. Further, the microsomal CLint at 1 μM in data set [1] fell in the range of 10 to 50 µL/min/mg.

With `COc1ncnc(C2CC2)c1-c1ncc2ncc(=O)n(Cc3ccc(-c4nc(C(F)(F)F)cn4C)cc3)c2n1` [Compound I-17, 2-(4-cyclopropyl-6-methoxypyrimidin-5-yl)-8-({4-[1-methyl-4-(trifluoromethyl)imidazol-2-yl]phenyl}methyl) pteridin-7-one], in data set [1], the microsomal CLint at 1 μM was in the range of 10 to 50 µL/min/mg.

The molecule `COc1ncnc(C2CC2)c1-c1ncc2ccc(=O)n(Cc3ccc(-c4nc(C(F)(F)F)cn4C)cc3F)c2n1` [Compound 71, 2-(4-Cyclopropyl-6-Methoxypyrimidin-5-Yl)-8-({2-Fluoro-4-[1-Methyl-4-(Trifluoromethyl)Imidazol-2-Yl]Phenyl}Methyl)Pyrido[2,3-d]Pyrimidin-7-One] had a GI50 in the data set with MDA-MB-436 cells of 10 to 100 nM. The negative logarithm of the IC50 (pIC50) in the data set with HCC1806 Ub-PCNA (USP1) was 7.00 to 8.00.

The molecule `[2H]C([2H])([2H])Oc1ncnc(C2CC2)c1-c1ncc2ccc(=O)n(C([2H])([2H])c3ccc(-c4nc(C(F)(F)F)cn4C([2H])([2H])[2H])cc3)c2n1` [Compound I-57] gave a microsomal CLint at 1 μM in data set [1] of 10 to 50 µL/min/mg.

Regarding `COc1ncnc(C2CC2)c1-c1ncc2cc(-c3nnc(C)n3C)c(=O)n(Cc3ccc(-c4nc(C(F)(F)F)cn4C4CC4)cc3)c2n1` [Compound I-149, 8-({4-[1-Cyclopropyl-4-(Trifluoromethyl)Imidazol-2-Yl]Phenyl}Methyl)-2-(4-Cyclopropyl-6-Methoxypyrimidin-5-Yl)-6-(4,5-Dimethyl-1,2,4-Triazol-3-Yl)Pyrido[2,3-d]Pyrimidin-7-One], the GI50 with MDA-MB-436 cells lay in the range of 10 to 100 nM. The same molecule gave a pIC50 in the data set with HCC1806 Ub-PCNA (USP1) of 7.00 to 8.00.

On to `COc1ncnc(C2CC2)c1-c1ncc2ccc(=O)n(Cc3ccc(-c4nc(C(F)(F)F)cn4C)c(F)c3)c2n1` [Compound 72, 2-(4-Cyclopropyl-6-Methoxypyrimidin-5-Yl)-8-({3-Fluoro-4-[1-Methyl-4-(Trifluoromethyl)Imidazol-2-Yl]Phenyl}Methyl)Pyrido[2,3-d]Pyrimidin-7-One], for which the GI50 in the data set with MDA-MB-436 cells is under 10 nM. This molecule also had a pIC50 in the data set on HCC1806 Ub-PCNA (USP1) of 7.00 to 8.00.

In turn, `COc1ncnc(C2CC2)c1-c1ncc2cc(-c3cnn(C)c3)c(=O)n(Cc3ccc(-c4nc(C(F)(F)F)cn4C)cc3)c2n1` [Compound 64] displayed a GI50 in the data set on MDA-MB-436 cells of 10 to 100 nM. In the data set on HCC1806 Ub-PCNA (USP1), this molecule had a pIC50 of 7.00 to 8.00.

The molecule `COc1ncnc(C2CC2)c1-c1ncc2ccc(=O)n(Cc3ccc(-c4nc(C(F)(F)F)cn4C)cn3)c2n1` [Compound 88, 2-(4-Cyclopropyl-6-Methoxypyrimidin-5-Yl)-8-({5-[1-Methyl-4-(Trifluoromethyl)Imidazol-2-Yl]Pyridin-2-Yl}Methyl)Pyrido[2,3-d]Pyrimidin-7-One] had a GI50 with MDA-MB-436 cells of over 1000 nM. The molecule further showed a pIC50 with HCC1806 Ub-PCNA (USP1) of 7.00 to 8.00.

As to `COc1ncnc(C2CC2)c1-c1ncc2cc(-c3nnc(C)o3)c(=O)n(Cc3ccc(-c4nc(C(F)(F)F)cn4C4CC4)cc3)c2n1` [Compound I-154], the GI50 in the data set on MDA-MB-436 cells was in the range of 10 to 100 nM. In the data set with HCC1806 Ub-PCNA (USP1), this molecule showed a pIC50 of 7.00 to 8.00.

`COc1ncnc(C2CC2)c1-c1ncc2ccc(=O)n(Cc3ccc(-c4nc(C(F)(F)F)ccc4OC(C)C)cc3)c2n1` [Compound 75, 2-(4-Cyclopropyl-6-Methoxypyrimidin-5-Yl)-8-({4-[3-Isopropoxy-6-(Trifluoromethyl)Pyridin-2-Yl]Phenyl}Methyl)Pyrido[2,3-d]Pyrimidin-7-One]: the GI50 in the data set on MDA-MB-436 cells is 10 to 100 nM. Also, in the data set with HCC1806 Ub-PCNA (USP1), the pIC50 is 7.00 to 8.00.

For `COc1ncnc(C2CC2)c1-c1ncc2ccc(=O)n(Cc3ccc(-c4ncc(F)cc4OC(C)C)cc3)c2n1` [Compound 67, 2-(4-cyclopropyl-6-methoxypyrimidin-5-yl)-8-{[4-(5-fluoro-3-isopropoxypyridin-2-yl)phenyl]methyl}pyrido[2,3-d]pyrimidin-7-one], the GI50 with MDA-MB-436 cells was in the range of 10 to 100 nM. The pIC50 in the data set with HCC1806 Ub-PCNA (USP1) was 7.00 to 8.00.
